Assay results as given in US11713305B2, “Zinc sensors for in vivo imaging of beta-cell function by MRI” (The Board of Regents of the University of Texas System, priority 2017, dated 2023).

Tests used:
[1] = Kinetic inertness (transmetalation by Zn(II) in phosphate buffer); assay type: physicochemical; conditions: four equivalents of Zn^2+ in phosphate buffer (pH=7), 310 K
Text: Shortly after the first confirmed clinical cases of nephrogenic systemic fibrosis (NSF), increased efforts have been made to design agents with high thermodynamic stability and kinetic inertness (Kallen et al., 2008; Reilly, 2008; Rofsky et al., 2008; Wiginton et al., 2008; Abujuden et al., 2009). The sensors shown here are very stable macrocyclic DO3A-monoamide derivatives with reported log KML>20. However, given that the agents reported here also have a high affinity for Zn^2+ ions, and Zn^2+ has been implicated as the major competing ion for transmetalation of Gd^3+ agents derived from linear polyamine ligands, the kinetic rate of Gd^3+ release is arguably the most critical factor in determining in vivo toxicity (Laurent et al., 2010). Using a previously published method (Laurent et al., 2010) consisting of incubating each agent with four equivalents of Zn^2+ in phosphate buffer (pH=7), we compared the kinetic stability of the agents reported here with the FDA-approved agent Magnevist® (GdDTPA, cf. FIG. 7).
Kinetic inertness was determined according to published procedures with minor modifications (Laurent et al., 2010; Silverio et al., 2009). Stock solutions of phosphate buffer (67 mM, pH=7.4), Gd(III) chelates (10 mM) and ZnCl2 (231 mM) were prepared first. Calculated volumes of stock solutions or water were pipetted into small glass vials to obtain a test solution of 300 μL with 30 mM phosphate, 1.5 mM Gd(III) chelate, and 6.0 mM Zn(II). Samples were measured 15 minutes after the sample temperature stabilized at 310 K. During the entire experiment, the samples inside the NMR tubes were kept in an incubator at 310 K. The T1 of the solutions was determined at 310 K and 0.47 T (20 MHz) at various time points within 7 days. As a reference, GdDTPA was analyzed under the same conditions. The R1^P relaxation rate is obtained by subtracting the diamagnetic contribution of the water relaxation (0.28 s-1) from the observed relaxation rate R1=(1/T1).

[2] = 17O NMR of DyL4 without and with HSA; assay type: physicochemical; conditions: no HSA
Experimental: To gain more insights into this process, further ^17O NMR experiments performed using DyL4 in the presence of 0.6 mM HSA (Dy^3+ was substituted for Gd^3+ for improved fitting purposes, FIGS. 2 and 3 and Table 4).
^17O NMR experiments were performed at 9.4 T on a Bruker AVANCE III NMR spectrometer. The temperature was regulated by air flow controlled by a Bruker VT unit. The samples ([Gd^3+]=25 mM; [Dy^3+]=1 mM) were prepared in ^17O enriched water (10%) with the pH being maintained at 7.4 with 100 mM Tris buffer. The sample was loaded into a 18 μL spherical bulb (Wilmad-Lab Glass, Vineland, NJ) and placed inside a 5 mm NMR tube containing 400 μL of water to eliminate any susceptibility effects. Longitudinal relaxation rates (1/T1) were obtained by the inversion recovery method and transverse relaxation rates (1/T2) were obtained by the Carr-Purcell—Meiboom—Gill spin echo technique. The acidified water (pH=3.0) containing 10% enriched ^17O water was used as a reference for the measurements. For the DyL4 complexes (no HSA and with HSA+Zinc), acidified water solutions and 1 mM LaL4+3 mM HSA with zinc (1:1) were used as the corresponding references. The corresponding fittings were performed with the Scientist 3.0 software (Micromath®).
With Dy^3+ solutions the correlation time for dipolar relaxation is governed by the electron spin relaxation time Te which is much shorter than Tm and τR. For this reason, ^17O transversal relaxation rates predominantly originates from Curie spin relaxation (Caravan et al., 2001; Karimi and Helm, 2016). The Curie relaxation is described by Fries (Vigouroux et al., 1999) and simplified by the Swift-Connick equations (Swift and Connick, 1962): […]
The water exchange rates kex and the chemical shift differences (inner-sphere water and bulk water) Δωm can be expressed as: […]
C1 and C2 are empirical constants described by Lewis and Bleaney (1972), and represent the relative contributions of the contact and pseudocontact terms. B is the external magnetic field.

kinetic stability against transmetalation [1]	1/T2m^298 [2]	A1 [2]	A2 [2]	ER [2] [kcal/mol]	ΔH^‡ [2] [kcal/mol]	SMILES	kex^298 ([2]; 17O enriched water, TRIS buffered)
kinetically inert	–	–	–	–	–	O=C(O)CN1CCN(CC(=O)O)CCN(CC(=O)NCCN(Cc2ccccn2)Cc2ccccn2)CCN(CC(=O)O)CC1 [GdL1]	–
kinetically inert	–	–	–	–	–	O=C(O)CN1CCN(CC(=O)O)CCN(CC(=O)NCCN(CCc2ccccn2)Cc2ccccn2)CCN(CC(=O)O)CC1 [GdL4]	–
kinetically inert	600 ± 20 10^4 s^−1	−73 ± 2 10^6rad s^−1K T^−1	0.3 ± 0.1 10^9rad s^−1K^2 T^−1	9.56 ± 2.39	9.87 ± 0.12	O=C(O)CN1CCN(CCC(=O)NCCN(Cc2ccccn2)Cc2ccccn2)CCN(CC(=O)O)CCN(CC(=O)O)CC1 [GdL2]	4.3 ± 0.1 10^6 s^−1
